# Laboratory results reported in patent US20240350402A1, “TOPICAL DRUG TREATMENT TO PREVENT OR REDUCE CORNEAL SCARRING” (The Cleveland Clinic Foundation, priority 2021, published 2024).
# Key:
# [1] = test system: rabbit corneas after Descemetorhexis; assay: Descemetorhexis (DMR) model: standardized slit lamp photographs, ImageJ intensity of central opacity; assay type: in vivo; conditions: one month; for intensity of opacity in a 2.5 mm circle of central cornea (ImageJ) vs DMR vehicle or DMR oral losartan groups: P<0.05
# Protocol: All procedures involving animals were approved by the Institutional Animal Care and Use Committee (IACUC) at the Cleveland Clinic Foundation (Cleveland, OH, USA) and the Animal Care and Use Review Office of the Department of the Army (Fort Detrick, MD). All animals were treated in accordance with the tenets of the ARVO Statement for the Use of Animals in Ophthalmic and Vision Research. Twenty-eight 10- to 15-week-old female New Zealand White rabbits weighing 2.5 to 3.0 kg each were included in this study—four in each group.
# The rabbits had general anaesthesia with 30 mg/kg ketamine hydrochloride and 5 mg/kg xylazine by IM injection. In addition, topical proparacaine hydrochloride 1% (Alcon, Ft Worth, TX, USA) was applied to each eye prior to the surgery. One cornea selected at random in each group either had sham surgery without Descemetorhexis or an 8 mm diameter central Descemet's membrane-endothelial excision. The time point of one month after surgery was selected for the study because myofibroblasts and fibrosis in the posterior cornea was maximal at this time point in a prior time course Descemetorhexis study (Sampaio et al., 2021). Descemetorhexis was performed as described in the prior study (Sampaio et al., 2021). Briefly, a wire lid speculum was placed into one eye of each rabbit and an 8 mm diameter gentian violet circle was marked on the epithelial surface for reference. A limbal entry incision was created with a 1.6 mm blade (Bausch and Lomb, Rochester, NY, USA) and 0.3 ml Healon OVD (Abbott Medical Optics Inc. Santa Ana, CA, USA) was injected into the anterior chamber. A reversed Sinskey hook (Katena, Denville, New Jersey, USA) was placed into the anterior chamber and an 8 mm diameter disc of Descemet's membrane and endothelium was excised underlying the 8 mm area previously marked on the anterior corneal surface, without a subsequent endothelial corneal transplant. No removal of Descemet's membrane or endothelium was performed in unwounded sham surgery eyes. Remaining Healon OVD was removed with a Simcoe irrigation and aspiration cannula (Bausch & Lomb, Storz, Rochester, NY, USA) and the anterior chamber was filled with balanced salt solution (BSS). A single 10-0 nylon suture was placed at the incision site to prevent leakage from the anterior chamber. One drop of ciprofloxacin (Alcon, Ft. Worth, TX, USA) was applied to the corneas immediately after surgery and four times a day until the epithelium entry wound healed at approximately 2 days.
# The oral solution was prepared with 5 ml distilled water+50 ml ora-plus (suspending vehicle—Perrigo, Dublin, Ireland)+45 ml Ora-sweet (flavored syrup vehicle—Perrigo).
# After one month of treatment, study eyes were dilated with two drops of 1% tropicamide (Akom Co., Lake Forest, IL) for thirty minutes. After general anaesthesia, the study eye in each rabbit had standardized slit lamp photographs at 20× magnification with a Haag Streit (Mason, OH, USA) BX900 slit lamp photography system using identical lighting position and intensity. For each study eye, the intensity of a 2.5 mm diameter central circle (not including the light reflex, examples shown in FIG. 1) was determined using ImageJ 1.53a analysis software. Statistical comparisons of the intensity of opacity was performed using the Kruskal-Wallis test followed by post-hoc Dunn's-Bonferroni test and p<0.05 was considered statistically significant
# [2] = test system: rabbit corneas after -9D PRK; assay: -9D PRK model: slit lamp central opacity (ImageJ); assay type: in vivo; conditions: topical 0.8 mg/ml losartan six times a day, one month
# Protocol: Animal procedures were approved by the Institutional Animal Care and Use Committee at the Cleveland Clinic Foundation and animals were treated in accordance with the tenets of the Association for Research in Vision and Ophthalmology Statement for the Use of Animals in Ophthalmic and Vision Research. Twelve female 12- to 15-week-old New Zealand white rabbits weighing 2.5 to 3 kg each were included. Starting 24 hours prior to surgery and continuing 5 days after PRK, all rabbits received 60 mL children's liquid acetaminophen (Johnson & Johnson, Ft. Washington, PA, USA) per 1 L of drinking water. One eye of each rabbit was randomly selected to have −9.0 D (on myopia scale) PRK and received 2 drops of topical 1% proparacaine hydrochloride (Alcon, Fort Worth, TX, USA) prior to the surgery. […]
# At 1 month after PRK and treatment, each rabbit was placed under ketamine-xylazine general anesthesia and the eyes were dilated with two drops of 1% tropicamide (Akorn Co., Lake Forest, IL, USA) for 30 minutes. […] For each study cornea, the mean opacity in pixels in the central 3.5 mm of the PRK ablated zone was determined by using ImageJ 1.53a analysis software (National Institutes of Health, Bethesda, MD, USA). […]
smiles,measurement,setting,value
CCCCc1nc(Cl)c(CO)n1Cc1ccc(-c2ccccc2-c2nn[nH]n2)cc1 [losartan],"intensity of opacity in the central cornea, topical vs topical and oral losartan",[1]; DMR,no significant difference
same,scarring fibrosis and neovascularization compared to DMR vehicle control corneas,"[1]; DMR, oral 5 mg/kg three times a day",no difference
same,changes in corneal opacity and neovascularization vs topical losartan alone,"[1]; DMR, topical 0.4 mg/ml six times per day + oral 5 mg/kg three times a day",not different
same,scarring fibrosis (slit lamp),"[1]; DMR, topical 0.4 mg/ml six times per day",overall decrease
same,intensity of opacity in a 2.5 mm circle of central cornea (ImageJ) vs DMR vehicle or DMR oral losartan groups,"[1]; DMR, topical losartan and oral losartan",significant decrease
same,corneal neovascularization after Descemetorhexis,"[1]; DMR, topical losartan",reduced
same,intensity of opacity in a 2.5 mm circle of central cornea (ImageJ) vs DMR vehicle or DMR oral losartan groups,"[1]; DMR, topical losartan",significant decrease
same,transparency of sham unwounded corneas,[1]; 0.4 mg/ml topical losartan six times per day,no effect
same,transparency of sham unwounded corneas,[1]; oral 5 mg/kg losartan three times per day,no effect
same,mean pixels of opacity within the analyzed 3.5 mm diameter area (mean±SEM),[2],77±3 pixels
